{"source": "patent US12391683B2", "about": "“Therapeutic compounds and methods” (Actio Biosciences, Inc., priority 2022, dated 2025)", "target": "T1, TRPC4 channels (Homo sapiens, UniProt Q9UBN4)", "T1 construct": "expressed in transfected cells; host or cells: HEK293", "T1 sequence (Q9UBN4 1-977)": "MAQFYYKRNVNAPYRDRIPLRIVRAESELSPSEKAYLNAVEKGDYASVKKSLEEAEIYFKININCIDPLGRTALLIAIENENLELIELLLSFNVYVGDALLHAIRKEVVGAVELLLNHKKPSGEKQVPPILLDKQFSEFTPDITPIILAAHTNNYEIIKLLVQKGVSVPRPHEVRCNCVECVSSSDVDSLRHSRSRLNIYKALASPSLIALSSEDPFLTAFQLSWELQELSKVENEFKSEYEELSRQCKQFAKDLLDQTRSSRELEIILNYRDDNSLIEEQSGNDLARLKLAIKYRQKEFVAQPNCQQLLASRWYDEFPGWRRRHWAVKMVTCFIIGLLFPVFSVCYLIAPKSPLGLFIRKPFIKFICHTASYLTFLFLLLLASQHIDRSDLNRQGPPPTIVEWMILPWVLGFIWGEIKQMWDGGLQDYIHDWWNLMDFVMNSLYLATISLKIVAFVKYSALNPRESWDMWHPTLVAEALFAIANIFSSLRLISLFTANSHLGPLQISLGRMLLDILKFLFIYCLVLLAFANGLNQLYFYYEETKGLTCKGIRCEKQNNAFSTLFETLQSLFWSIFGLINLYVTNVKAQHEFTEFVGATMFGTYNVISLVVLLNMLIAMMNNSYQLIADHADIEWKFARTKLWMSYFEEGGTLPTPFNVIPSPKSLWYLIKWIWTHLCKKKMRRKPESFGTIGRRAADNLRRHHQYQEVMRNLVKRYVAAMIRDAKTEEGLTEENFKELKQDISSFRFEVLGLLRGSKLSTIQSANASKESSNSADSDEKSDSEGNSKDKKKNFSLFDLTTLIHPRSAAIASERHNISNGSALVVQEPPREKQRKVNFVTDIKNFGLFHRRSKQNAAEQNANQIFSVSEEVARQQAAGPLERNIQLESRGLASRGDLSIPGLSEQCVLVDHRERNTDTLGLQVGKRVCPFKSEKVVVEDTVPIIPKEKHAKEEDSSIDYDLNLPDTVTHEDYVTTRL", "experiment": "TRP Family FLIPR Assay, TRPC4", "format": "cell-based", "details": "HEK293 cells", "protocol": "The compound of Example 5 was tested for selectivity against a panel of Human TRP family ion channels in a TRP Family FLIPR Assay as described below. • 1. TRPC3 channels (human TRPC3 variant 1 gene, expressed in HEK293 cells). • 2. TRPC4 channels (human TRPC4 gene, expressed in HEK293 cells). • 3. TRPC5 channels (human TRPC5 gene, expressed in HEK293 cells). • 4. TRPC6 channels (human TRPC6 gene, expressed in HEK293 cells). • 5. TRPM2 channels (human TRPM2 gene, transiently expressed in HEK293 cells). • 6. TRPM3 channels (human TRPM3 gene, transiently expressed in HEK293 cells). • 7. TRPM4 channels (human TRPM4 gene, expressed in CHO cells). • 8. […]\nData acquisition was performed via the FLIPR Control software supplied with the FLIPR System (MDS-AT) and data was analyzed using Microsoft Excel (Microsoft Corp., Redmond, WA) or GraphPad Prism. […]\n[formula] where Base is the response at low concentrations of test article, Max is the maximum response at high concentrations, xhalf the EC50, or IC50, the concentration of test article producing either half-maximal activation or inhibition, and rate is the Hill coefficient. […] No assumptions about the fit parameters was made; the fit parameters were determined by the algorithm.\nThe effect of each test article was evaluated at eight (8) concentrations: 0.003, 0.01, 0.03, 0.1, 0.3, 1, 3 and 10 μM, n≤4 wells/concentration). […]", "data": [{"smiles": "CC(C)(O)c1cnc(N2C[C@@]3(CC[C@@H](F)[C@](C)(Cn4cnc5ccc(C#N)cc54)C3)OC2=O)cn1", "note": "(single isomer, unassigned) [Example 5]", "values": [{"measurement": "EC50", "setting": "agonist mode, vs EMAX of (−)-Englerin A 30 μM, read-out: EC50 hTRPC4", "result": "> 10", "unit": "µM"}, {"measurement": "IC50", "setting": "antagonist mode, activated with 0.5 μM (−)-Englerin A, 0.003-10 μM, read-out: IC50 hTRPC4", "result": "> 1", "unit": "µM"}]}]}
